# Measured values reported in ChEMBL document CHEMBL4837255, “Overcoming the Pregnane X Receptor Liability: Rational Design to Eliminate PXR-Mediated CYP Induction” (ACS Med Chem Lett, 2021).
# Key:
# [1] = molecular target: T1, Nuclear receptor subfamily 1 group I member 2 (Homo sapiens, UniProt O75469); assay: Activation of full length human PXR expressed in human HepG2 cells co-expressing luciferase of CYP3A4 promoter transcription assessed as increase of luciferase activity preincubated for 24 hrs followed by addition of luciferase substrate and measured by hPXR Gene reporter assay; type: ADME, cell-based
# T1 sequence (O75469 whole entry): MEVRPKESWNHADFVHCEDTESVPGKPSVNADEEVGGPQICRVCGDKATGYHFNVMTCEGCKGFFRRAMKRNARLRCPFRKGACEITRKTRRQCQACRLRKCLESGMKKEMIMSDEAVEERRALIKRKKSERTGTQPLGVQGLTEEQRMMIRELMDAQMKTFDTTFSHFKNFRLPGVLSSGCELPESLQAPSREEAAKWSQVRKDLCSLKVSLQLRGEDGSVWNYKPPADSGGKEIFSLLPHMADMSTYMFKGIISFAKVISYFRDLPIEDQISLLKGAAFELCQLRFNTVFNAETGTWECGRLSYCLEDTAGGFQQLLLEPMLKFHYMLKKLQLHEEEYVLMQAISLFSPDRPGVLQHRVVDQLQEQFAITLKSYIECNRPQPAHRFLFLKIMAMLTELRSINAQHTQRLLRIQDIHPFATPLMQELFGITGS
# PXR (NR1I2) = molecular target: T2, PXR (NR1I2) (Homo sapiens, UniProt O75469); assay: Activation of full length human PXR expressed in human HepG2 cells co-expressing luciferase of CYP3A4 promoter transcription assessed as increase of luciferase activity at 50 uM preincubated for 24 hrs followed by addition of luciferase substrate and measured by hPXR Gene reporter assay relative to control; type: ADME, cell-based
# T2 sequence (O75469 whole entry): T1 sequence (O75469 whole entry)
# CYP3A4 = CYP3A4 (Homo sapiens, UniProt P08684); assay: Induction of CYP3A4 in human hepatocytes; type: ADME, cell-based, Liver
# [2] = molecular target: T3, Extracellular calcium-sensing receptor (Mus musculus, UniProt Q9QY96); assay: Antagonist activity at mouse CaSR; type: functional
# T3 sequence (Q9QY96 whole entry): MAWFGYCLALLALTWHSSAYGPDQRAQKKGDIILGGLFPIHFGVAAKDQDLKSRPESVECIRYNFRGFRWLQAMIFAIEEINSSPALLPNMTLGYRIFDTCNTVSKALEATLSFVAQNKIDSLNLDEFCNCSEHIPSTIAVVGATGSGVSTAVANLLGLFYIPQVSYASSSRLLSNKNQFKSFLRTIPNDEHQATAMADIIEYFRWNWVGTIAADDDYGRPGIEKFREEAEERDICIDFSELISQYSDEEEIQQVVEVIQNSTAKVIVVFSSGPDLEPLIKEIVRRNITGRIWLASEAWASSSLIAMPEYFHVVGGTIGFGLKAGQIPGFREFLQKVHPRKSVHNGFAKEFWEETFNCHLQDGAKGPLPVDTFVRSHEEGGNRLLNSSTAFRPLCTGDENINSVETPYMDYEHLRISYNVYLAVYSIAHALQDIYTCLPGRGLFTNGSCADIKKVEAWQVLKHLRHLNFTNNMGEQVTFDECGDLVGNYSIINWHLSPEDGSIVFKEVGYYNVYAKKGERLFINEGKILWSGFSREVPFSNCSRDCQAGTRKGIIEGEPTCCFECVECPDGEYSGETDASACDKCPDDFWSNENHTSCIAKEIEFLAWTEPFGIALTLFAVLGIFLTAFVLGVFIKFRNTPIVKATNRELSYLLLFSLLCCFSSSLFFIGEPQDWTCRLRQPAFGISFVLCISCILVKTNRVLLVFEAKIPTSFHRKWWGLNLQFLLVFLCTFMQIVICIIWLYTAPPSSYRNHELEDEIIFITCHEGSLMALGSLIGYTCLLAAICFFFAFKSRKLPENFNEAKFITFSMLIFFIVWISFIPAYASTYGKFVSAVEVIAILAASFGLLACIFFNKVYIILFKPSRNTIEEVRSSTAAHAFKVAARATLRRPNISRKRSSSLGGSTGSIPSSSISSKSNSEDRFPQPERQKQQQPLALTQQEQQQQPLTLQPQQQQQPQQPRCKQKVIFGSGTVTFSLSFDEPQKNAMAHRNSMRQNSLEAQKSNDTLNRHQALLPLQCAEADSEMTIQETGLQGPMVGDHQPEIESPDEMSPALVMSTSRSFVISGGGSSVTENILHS
# [3] = Cmax in mouse at 1000 mg/kg/day, po measured after 10 days; type: ADME, organism-based; parameters: route oral, dose 1000 mg/kg/day, time 10 day; settings: in vivo
# [4] = Cmax in mouse at 2000 mg/kg/day, po measured after 10 days; type: ADME, organism-based; parameters: route oral, time 10 day, dose 2000 mg/kg/day; settings: in vivo
# [5] = Cmax in mouse at 300 mg/kg/day, po measured after 1 day; type: ADME, organism-based; parameters: route oral, dose 300 mg/kg/day, time 1 day; settings: in vivo
# [6] = Cmax in rat at 300 mg/kg/day measured after 1 day; type: ADME, organism-based; parameters: dose 300 mg/kg/day, time 1 day; settings: in vivo
# [7] = AUC (0 to t) in mouse at 1000 mg/kg/day, po measured after 10 days; type: ADME, organism-based; parameters: time 10 day, dose 1000 mg/kg/day; settings: in vivo
# [8] = AUC (0 to t) in mouse at 300 mg/kg/day, po measured after 10 days; type: ADME, organism-based; parameters: time 10 day, dose 300 mg/kg/day; settings: in vivo
# [9] = AUC (0 to t) in mouse at 2000 mg/kg/day, po measured after 1 day; type: ADME, organism-based; parameters: time 1 day, dose 2000 mg/kg/day; settings: in vivo
# [10] = AUC (0 to t) in rat at 300 mg/kg/day measured after 1 day; type: ADME, organism-based; parameters: dose 300 mg/kg/day, time 1 day; settings: in vivo
# [11] = Cmax in mouse at 1000 mg/kg/day, po measured after 1 day; type: ADME, organism-based; parameters: route oral, dose 1000 mg/kg/day, time 1 day; settings: in vivo
# [12] = AUC (0 to t) in mouse at 300 mg/kg/day, po measured after 1 day; type: ADME, organism-based; parameters: time 1 day, dose 300 mg/kg/day; settings: in vivo
# [13] = Cmax in rat at 300 mg/kg/day measured after 10 days; type: ADME, organism-based; parameters: time 10 day, dose 300 mg/kg/day; settings: in vivo
# [14] = Cmax in mouse at 300 mg/kg/day, po measured after 10 days; type: ADME, organism-based; parameters: route oral, time 10 day, dose 300 mg/kg/day; settings: in vivo
# [15] = Cmax in mouse at 2000 mg/kg/day, po measured after 1 day; type: ADME, organism-based; parameters: route oral, dose 2000 mg/kg/day, time 1 day; settings: in vivo
# [16] = AUC (0 to t) in mouse at 1000 mg/kg/day, po measured after 1 day; type: ADME, organism-based; parameters: time 1 day, dose 1000 mg/kg/day; settings: in vivo
# [17] = AUC (0 to t) in mouse at 2000 mg/kg/day, po measured after 10 days; type: ADME, organism-based; parameters: time 10 day, dose 2000 mg/kg/day; settings: in vivo
# [18] = AUC (0 to t) in rat at 300 mg/kg/day measured after 10 days; type: ADME, organism-based; parameters: time 10 day, dose 300 mg/kg/day; settings: in vivo
# [19] = AUC (0 to t) in rat at 100 mg/kg/day measured after 10 days; type: ADME, organism-based; parameters: time 10 day, dose 100 mg/kg/day; settings: in vivo
# [20] = Cmax in rat at 100 mg/kg/day measured after 10 days; type: ADME, organism-based; parameters: time 10 day, dose 100 mg/kg/day; settings: in vivo
# [21] = Cmax in rat at 100 mg/kg/day measured after 1 day; type: ADME, organism-based; parameters: dose 100 mg/kg/day, time 1 day; settings: in vivo
# [22] = AUC (0 to t) in rat at 100 mg/kg/day measured after 1 day; type: ADME, organism-based; parameters: time 1 day, dose 100 mg/kg/day; settings: in vivo
# [23] = molecular target: T4, Extracellular calcium-sensing receptor (Homo sapiens, UniProt P41180); assay: Antagonist activity at human CaSR in human HEK293 cells measured after 5 mins by FLIPR assay; type: functional, cell-based
# T4 sequence (P41180 whole entry): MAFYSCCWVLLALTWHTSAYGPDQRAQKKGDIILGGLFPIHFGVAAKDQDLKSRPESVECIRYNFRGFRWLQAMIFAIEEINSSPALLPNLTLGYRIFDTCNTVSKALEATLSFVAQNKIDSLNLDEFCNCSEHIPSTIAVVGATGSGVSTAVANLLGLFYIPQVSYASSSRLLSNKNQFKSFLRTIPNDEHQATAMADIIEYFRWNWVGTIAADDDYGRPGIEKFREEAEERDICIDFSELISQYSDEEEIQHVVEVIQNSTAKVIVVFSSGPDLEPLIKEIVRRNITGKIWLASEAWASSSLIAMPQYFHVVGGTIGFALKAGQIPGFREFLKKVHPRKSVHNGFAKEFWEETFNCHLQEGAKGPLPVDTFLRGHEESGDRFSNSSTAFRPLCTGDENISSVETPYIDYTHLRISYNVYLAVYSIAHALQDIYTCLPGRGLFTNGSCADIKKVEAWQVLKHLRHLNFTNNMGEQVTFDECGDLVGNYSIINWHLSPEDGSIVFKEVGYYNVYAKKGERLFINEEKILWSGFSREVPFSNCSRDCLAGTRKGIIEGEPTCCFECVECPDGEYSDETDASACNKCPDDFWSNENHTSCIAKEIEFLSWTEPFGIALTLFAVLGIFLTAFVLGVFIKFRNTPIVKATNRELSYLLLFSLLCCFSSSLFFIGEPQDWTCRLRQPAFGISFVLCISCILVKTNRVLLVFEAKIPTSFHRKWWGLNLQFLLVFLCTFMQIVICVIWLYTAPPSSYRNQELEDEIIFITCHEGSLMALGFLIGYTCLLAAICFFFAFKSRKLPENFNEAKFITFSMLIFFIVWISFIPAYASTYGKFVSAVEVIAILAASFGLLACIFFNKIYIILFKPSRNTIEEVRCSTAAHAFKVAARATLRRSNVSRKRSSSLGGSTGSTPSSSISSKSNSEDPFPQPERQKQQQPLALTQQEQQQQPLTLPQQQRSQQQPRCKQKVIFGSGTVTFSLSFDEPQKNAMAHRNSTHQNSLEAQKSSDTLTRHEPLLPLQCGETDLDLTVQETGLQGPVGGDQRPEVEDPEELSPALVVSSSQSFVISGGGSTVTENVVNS
# CYP3A4, sequence (P08684 whole entry): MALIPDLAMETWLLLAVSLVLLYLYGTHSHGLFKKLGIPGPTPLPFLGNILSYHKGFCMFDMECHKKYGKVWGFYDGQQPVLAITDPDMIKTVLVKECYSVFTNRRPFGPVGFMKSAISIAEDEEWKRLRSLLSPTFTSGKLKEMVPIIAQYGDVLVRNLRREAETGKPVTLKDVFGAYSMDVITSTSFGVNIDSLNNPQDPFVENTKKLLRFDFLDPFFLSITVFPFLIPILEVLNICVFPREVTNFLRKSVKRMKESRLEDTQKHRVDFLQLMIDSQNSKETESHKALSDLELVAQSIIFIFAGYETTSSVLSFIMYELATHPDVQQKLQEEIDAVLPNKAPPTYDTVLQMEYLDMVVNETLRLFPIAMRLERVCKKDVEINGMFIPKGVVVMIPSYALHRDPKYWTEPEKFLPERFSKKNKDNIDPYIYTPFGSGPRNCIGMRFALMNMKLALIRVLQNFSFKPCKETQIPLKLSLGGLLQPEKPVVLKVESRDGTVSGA
smiles,measurement,setting,value
Cc1ncc(-c2c(C)nc(-c3cccc(F)c3O)n(CCc3ccccc3)c2=O)s1,EC50,[1],> 10 µM
same,"Emax at 24 h, 50 µM",PXR (NR1I2),40%
Cc1ccc(-c2nc(CCc3ccccc3)c(-c3cccc(F)c3O)nc2C)s1,EC50,[1],3.2 µM
same,"Emax at 24 h, 50 µM",PXR (NR1I2),110%
Cc1ccc(-c2c(C)nc(-c3cccc(F)c3O)n(CCc3ccccc3)c2=O)s1,Emax,CYP3A4,10%
same,IC50,[2],0.051 µM
same,EC50,[1],2.5 µM
same,Cmax,[3],680 ng/mL
same,Cmax,[4],480 ng/mL
same,Cmax,[5],980 ng/mL
same,"Emax at 24 h, 50 µM",PXR (NR1I2),122%
same,Cmax,[6],330 ng/mL
same,AUC(0-t) at 240 h,[7],2850 ng·h/mL
same,AUC(0-t) at 240 h,[8],1260 ng·h/mL
same,AUC(0-t) at 24 h,[9],15100 ng·h/mL
same,AUC(0-t) at 24 h,[10],2500 ng·h/mL
same,Cmax,[11],2960 ng/mL
same,AUC(0-t) at 24 h,[12],2880 ng·h/mL
same,Cmax,[13],360 ng/mL
same,Cmax,[14],820 ng/mL
same,Cmax,[15],3600 ng/mL
same,AUC(0-t) at 24 h,[16],10800 ng·h/mL
same,AUC(0-t) at 240 h,[17],1580 ng·h/mL
same,AUC(0-t) at 240 h,[18],1800 ng·h/mL
Cc1nc(-c2cccc(F)c2O)n(CCc2ccccc2)c(=O)c1-c1ccc(-c2ccccc2)s1,EC50,[1],8 µM
same,"Emax at 24 h, 50 µM",PXR (NR1I2),60%
Cc1nc(-c2cccc(F)c2O)n(CCc2ccccc2)c(=O)c1Cc1ccccc1,EC50,[1],1 µM
same,"Emax at 24 h, 50 µM",PXR (NR1I2),250%
Cc1nc(-c2cccc(F)c2O)n(CCc2ccccc2)c(=O)c1-c1cc(-c2ccccn2)c(C)s1,EC50,[1],> 50 µM
same,"Emax at 24 h, 50 µM",PXR (NR1I2),9%
same,AUC(0-t) at 240 h,[19],41100 ng·h/mL
same,Cmax,[20],12000 ng/mL
same,Cmax,[21],8900 ng/mL
same,AUC(0-t) at 24 h,[22],29500 ng·h/mL
Cc1nc(-c2cccc(F)c2O)n(CCc2ccccc2)c(=O)c1-c1ccc(CO)s1,EC50,[1],13 µM
same,"Emax at 24 h, 50 µM",PXR (NR1I2),31%
same,IC50,[23],> 10 µM
Cc1nc(-c2cccc(F)c2O)n(CCc2ccccc2)c(=O)c1-c1ccc(-c2ccccn2)s1,EC50,[1],5 µM
same,"Emax at 24 h, 50 µM",PXR (NR1I2),36%
